System: MTHFD2
Assay: MTHFD2 knockdown efficiency by qPCR and Western analyses after siRNA transfection
Type: cell-based
Conditions: LNCaP cells, mRNA by qRT-PCR
Experimental: FIG. 1: MTHFD2 knockdown inhibits growth of PCa cells, PDX-derived organoids, and tumor xenografts. A. MTHFD2 knockdown efficiency was determined in LNCaP and DU145 cells that were transfected with either scrambled siRNA or two independent MTHFD2-specific siRNAs for 48 hours by both qPCR and Western analyses. B. LNCaP, VCaP, or 22Rv1 cells transfected with control or MTHFD2-specific siRNAs were cultured for the indicated times, and cell numbers were determined by trypan blue staining. *p<0.01. MTHFD2 knockdown hinders colony (C-D) and prostatosphere (E) formation ability of PCa cells. F. Viability of normal prostate cells is not affected by MTHFD2 knockdown. G. MTHFD2 expression and knockdown efficiency in various LuCaP organoids were assessed by Western analysis.
FIG. 4: A. LNCaP cells were transfected with MTHFD2 (siMTHFD2 #1) or non-targeting control siRNAs. Cells were cultured for the indicated time points, collected, and MTHFD2 mRNA levels were determined by qRT-PCR. […] B. LNCaP and DU145 cells were reverse transfected with either control siRNA or two independent siRNAs against MTHFD2. After 48 hours, relative cell viability was determined using the CCK8 assay. C. Bar graph showing quantification of PDX derived organoids representing the number of organoids per field in FIG. 1H.
Briefly, cells were reverse transfected using Lipofectamine RNAiMAX transfection reagent (ThermoFisher) and plated into 96-well or 6-well plates. Cells in 6-well plates were cultured for the indicated times, trypsinized, stained with trypan blue, and counted using a hemocytometer. […] Cells plated into the 96-well plates were cultured for 48 hrs and cell viability was measured using the CCK-8 kit (Bimake, Munich, Germany).
RNA extraction, reverse transcription and quantitative polymerase chain reaction (qPCR) were performed as described previously (Sheng X, Arnoldussen Y J, Storm M. Tesikova M, Nenseth H Z, Zhao S, et al. Divergent androgen regulation of unfolded protein response pathways drives prostate cancer. EMBO Mol Med 2015; 7:788-801). […]

siMTHFD2-2: MTHFD2-specific siRNA CAGGCCAGCTCAAGAAGCAAA; location 1140; positive control in Example 3 (chain 2 CAGGCCAGCUCAAGAAGCAAA; chemistry not given here; one strand in two spellings)
MTHFD2 knockdown, maximal (72 hours post-transfection): ~80%
return of MTHFD2 to basal levels (time course after transfection): ≤ 12 days
time MTHFD2 remained significantly downregulated (time course after transfection): more than one week
